Test results as given in ChEMBL document CHEMBL1201862, “PubChem BioAssay data set” (2004).
The source made the active and inactive calls.

How the values were obtained:
[1] = THP-1 cell cytotoxicity, dose response, cytotoxicity control for non-replicating M. tuberculosis project (AID 489025); assay type: functional
[2] = target: T1, Polyadenylate-binding protein 1 (Homo sapiens, UniProt P11940); assay: MLLE binding blockers, Cy5 peptide tracer – biochemical, fluorescence polarization, Cy5-PAM2 peptide, secondary, miRNA deadenylation inhibitor project, dose response (AID 602260); assay type: functional; conditions: read-out: IC50_Mean
T1 sequence (P11940 whole entry): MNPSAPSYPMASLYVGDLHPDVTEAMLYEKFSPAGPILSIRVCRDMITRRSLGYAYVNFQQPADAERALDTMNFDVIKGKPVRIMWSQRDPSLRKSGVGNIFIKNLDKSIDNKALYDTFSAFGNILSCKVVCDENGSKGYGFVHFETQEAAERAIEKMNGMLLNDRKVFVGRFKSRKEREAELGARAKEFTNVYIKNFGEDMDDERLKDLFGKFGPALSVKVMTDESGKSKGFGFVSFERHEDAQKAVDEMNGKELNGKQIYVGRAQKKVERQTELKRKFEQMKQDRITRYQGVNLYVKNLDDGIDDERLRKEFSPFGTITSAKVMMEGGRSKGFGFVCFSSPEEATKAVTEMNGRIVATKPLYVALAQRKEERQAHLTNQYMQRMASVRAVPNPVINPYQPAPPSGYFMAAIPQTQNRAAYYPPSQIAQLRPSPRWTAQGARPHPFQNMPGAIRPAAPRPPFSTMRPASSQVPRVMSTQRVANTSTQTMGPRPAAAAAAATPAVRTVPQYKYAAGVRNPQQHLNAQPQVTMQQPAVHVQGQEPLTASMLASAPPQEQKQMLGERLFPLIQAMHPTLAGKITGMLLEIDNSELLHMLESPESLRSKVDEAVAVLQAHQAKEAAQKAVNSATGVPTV

cells = assay type: functional
[3] = target: T1, Polyadenylate-binding protein 1; assay: MLLE domain peptide-binding blockers, IC50 – biochemical, fluorescence polarization, FITC-PAM2 peptide, dose response (AID 602259); assay type: functional; conditions: read-out: IC50_Mean
[4] = target: Acyl-homoserine lactone acylase PvdQ (Pseudomonas aeruginosa (strain LESB58), UniProt Q9I194); assay: PvdQ acylase enzyme activity blockers – biochemical, fluorescence, plate reader and imaging, cherry-picks, dose response (AID 493231)
Chain of Acyl-homoserine lactone acylase PvdQ (Q9I194 24-193 limits assumed): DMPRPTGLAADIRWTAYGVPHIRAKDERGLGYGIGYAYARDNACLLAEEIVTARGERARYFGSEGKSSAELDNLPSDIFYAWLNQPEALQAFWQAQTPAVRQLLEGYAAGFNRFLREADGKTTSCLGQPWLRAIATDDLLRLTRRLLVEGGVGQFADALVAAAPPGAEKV
Chain of Acyl-homoserine lactone acylase PvdQ (Q9I194 217-762 limits assumed): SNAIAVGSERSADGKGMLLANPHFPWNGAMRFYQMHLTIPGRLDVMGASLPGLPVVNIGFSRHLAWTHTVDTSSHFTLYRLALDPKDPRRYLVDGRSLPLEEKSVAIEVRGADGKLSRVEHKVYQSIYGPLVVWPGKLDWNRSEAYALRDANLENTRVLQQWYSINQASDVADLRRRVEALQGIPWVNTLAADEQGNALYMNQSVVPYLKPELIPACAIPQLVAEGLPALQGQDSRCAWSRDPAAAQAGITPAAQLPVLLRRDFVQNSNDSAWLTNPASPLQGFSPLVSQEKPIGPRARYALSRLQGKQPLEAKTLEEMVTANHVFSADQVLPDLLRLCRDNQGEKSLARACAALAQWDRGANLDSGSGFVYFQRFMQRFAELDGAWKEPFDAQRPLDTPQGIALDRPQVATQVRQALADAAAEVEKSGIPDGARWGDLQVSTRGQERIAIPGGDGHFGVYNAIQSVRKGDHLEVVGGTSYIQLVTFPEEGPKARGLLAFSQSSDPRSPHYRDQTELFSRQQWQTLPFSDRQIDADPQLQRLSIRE

Caspase-6 = target: T2, Caspase-6 (Homo sapiens, UniProt P55212); assay: inhibition of CASP6 peptide cleavage – biochemical, VEID-R110 fluorescence, cherry-pick, dose response (AID 720632)
T2 sequence (P55212 whole entry): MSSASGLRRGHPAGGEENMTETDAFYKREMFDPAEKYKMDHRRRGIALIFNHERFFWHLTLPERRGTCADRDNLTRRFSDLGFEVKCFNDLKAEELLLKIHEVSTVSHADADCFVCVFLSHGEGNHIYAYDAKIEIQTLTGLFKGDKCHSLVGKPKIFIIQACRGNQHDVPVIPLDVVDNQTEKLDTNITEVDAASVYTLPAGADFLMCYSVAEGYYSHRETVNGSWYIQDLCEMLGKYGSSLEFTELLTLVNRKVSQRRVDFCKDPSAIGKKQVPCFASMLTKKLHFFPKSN

HeLa = assay: viability loss in HeLa cells – cell-based, 24 h, cherry-picked samples, cytotoxicity control, dose response (AID 504726); assay type: functional; conditions: Homo sapiens;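 further: potency for cytotoxicity as loss of luminescence signal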
[5] = Luminescence Cell-Based Dose Retest to Confirm Inhibitors of Cancer Stem Cells. [Related pubchem assays (depositor defined):AID2717, AID2721]; assay type: functional; conditions: Homo sapiens
[6] = target: Neurotensin receptor type 1 (Homo sapiens, UniProt P30989); assay type: functional;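 further: Image-based confirmatory dose-response assay measuring agonist activity at NTR1; NTR1-expressing U2OS osteosarcoma cells imaged for beta-arrestin GFP spot formation; agonist potency where compounds increase beta-arrestin recruitment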
Chain of Neurotensin receptor type 1 (P30989 whole entry): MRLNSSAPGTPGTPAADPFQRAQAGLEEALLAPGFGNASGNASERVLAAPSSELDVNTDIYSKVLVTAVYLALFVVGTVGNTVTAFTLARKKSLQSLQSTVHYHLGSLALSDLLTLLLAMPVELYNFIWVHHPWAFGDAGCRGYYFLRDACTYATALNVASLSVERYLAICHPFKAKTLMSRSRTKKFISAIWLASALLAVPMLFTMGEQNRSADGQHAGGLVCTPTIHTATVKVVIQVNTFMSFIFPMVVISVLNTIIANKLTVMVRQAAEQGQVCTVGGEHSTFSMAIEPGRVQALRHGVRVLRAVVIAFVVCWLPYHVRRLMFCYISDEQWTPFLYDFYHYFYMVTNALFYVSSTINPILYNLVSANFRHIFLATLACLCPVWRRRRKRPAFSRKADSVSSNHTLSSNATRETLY

Cytochrome P450 2C9 = Cytochrome P450 2C9 (Homo sapiens, UniProt P11712); conditions: Potency
Chain of Cytochrome P450 2C9 (P11712 whole entry): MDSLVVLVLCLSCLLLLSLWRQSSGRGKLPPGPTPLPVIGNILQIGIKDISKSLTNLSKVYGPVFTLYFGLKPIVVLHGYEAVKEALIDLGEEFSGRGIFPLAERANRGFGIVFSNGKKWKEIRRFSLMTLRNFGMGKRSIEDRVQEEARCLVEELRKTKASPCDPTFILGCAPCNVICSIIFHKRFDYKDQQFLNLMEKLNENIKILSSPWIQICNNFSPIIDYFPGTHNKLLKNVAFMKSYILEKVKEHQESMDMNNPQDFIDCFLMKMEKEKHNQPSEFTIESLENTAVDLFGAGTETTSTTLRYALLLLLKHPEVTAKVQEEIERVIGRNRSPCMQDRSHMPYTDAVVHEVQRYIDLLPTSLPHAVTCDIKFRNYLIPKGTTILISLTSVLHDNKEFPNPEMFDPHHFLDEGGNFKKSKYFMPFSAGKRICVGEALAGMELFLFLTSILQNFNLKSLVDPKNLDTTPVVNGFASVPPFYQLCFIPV

[7] = target: Cyclin-dependent kinase 5/CDK5 activator 1 (Homo sapiens, UniProt Q00535); assay: blockade of human CDK5 activity – biochemical, cherry-picked samples, set 2, dose response (AID 504545)
Chain of Cyclin-dependent kinase 5/CDK5 activator 1 (Q00535 whole entry): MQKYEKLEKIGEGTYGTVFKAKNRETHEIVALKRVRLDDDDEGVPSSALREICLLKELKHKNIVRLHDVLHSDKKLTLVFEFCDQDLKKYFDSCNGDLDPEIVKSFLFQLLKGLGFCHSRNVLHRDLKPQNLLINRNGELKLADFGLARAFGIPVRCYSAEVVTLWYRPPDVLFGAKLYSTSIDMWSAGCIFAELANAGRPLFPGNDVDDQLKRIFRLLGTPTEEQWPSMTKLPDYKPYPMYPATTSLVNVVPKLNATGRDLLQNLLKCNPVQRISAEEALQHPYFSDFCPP
Chain of Cyclin-dependent kinase 5/CDK5 activator 1 (Q15078 whole entry, further chain): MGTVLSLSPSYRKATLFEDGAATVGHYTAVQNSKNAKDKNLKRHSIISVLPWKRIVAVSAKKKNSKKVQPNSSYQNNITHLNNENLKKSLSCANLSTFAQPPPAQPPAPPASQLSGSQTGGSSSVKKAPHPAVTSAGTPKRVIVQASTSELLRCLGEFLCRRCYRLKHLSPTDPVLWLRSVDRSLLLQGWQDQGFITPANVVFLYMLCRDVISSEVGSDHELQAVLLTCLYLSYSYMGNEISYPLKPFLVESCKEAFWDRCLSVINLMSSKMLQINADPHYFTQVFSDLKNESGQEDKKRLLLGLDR

[8] = Luminescence Cell-Based Dose Response HTS to Identify Activators of Luciferase Translation or Activity in H4 […] Cells. [Related pubchem assays: 1829 (Project Summary), 1814 (Primary HTS)]; assay type: functional
[9] = Luminescence Cell-Based Dose Retest to Confirm Activators of 5'UTR Stem-Loop Driven Alpha-Synuclein mRNA Translation in H4 Neuroglioblastoma Cells. [Related pubchem assays (depositor defined):AID1813, AID1829]; assay type: functional
H4 = assay: Luminescence Cell-Based Dose Response HTS to Identify Activators of 5'UTR Stem-Loop Driven Prion Protein mRNA Translation in H4 Neuroglioblastoma Cells. [Related pubchem assays: 1829 (Project Summary), 1814 (Primary HTS)]; assay type: functional; conditions: Homo sapiens
[10] = Luminescence Cell-Based Dose Response HTS to Identify Activators of 5'UTR Stem-Loop Driven Prion Protein mRNA Translation in H4-C Neuroglioblastoma Cells. [Related pubchem assays: 1829 (Project Summary), 1814 (Primary HTS)]; assay type: functional
[11] = target: T3, Heat shock factor protein 1 (Mus musculus, UniProt P38532); assay: enhancement of HSF1-driven luciferase signal – cell-based, NIH3T3, luminescence, dose retest, confirmation (AID 435004); assay type: functional;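 further: stress induced by proteasome inhibitor MG132 added 30 min after compound; luciferase reporter driven by HSF1 response element in NIH3T3 cells; actives raise luminescence as potentiators of the MG132 stress response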
T3 sequence (P38532 whole entry): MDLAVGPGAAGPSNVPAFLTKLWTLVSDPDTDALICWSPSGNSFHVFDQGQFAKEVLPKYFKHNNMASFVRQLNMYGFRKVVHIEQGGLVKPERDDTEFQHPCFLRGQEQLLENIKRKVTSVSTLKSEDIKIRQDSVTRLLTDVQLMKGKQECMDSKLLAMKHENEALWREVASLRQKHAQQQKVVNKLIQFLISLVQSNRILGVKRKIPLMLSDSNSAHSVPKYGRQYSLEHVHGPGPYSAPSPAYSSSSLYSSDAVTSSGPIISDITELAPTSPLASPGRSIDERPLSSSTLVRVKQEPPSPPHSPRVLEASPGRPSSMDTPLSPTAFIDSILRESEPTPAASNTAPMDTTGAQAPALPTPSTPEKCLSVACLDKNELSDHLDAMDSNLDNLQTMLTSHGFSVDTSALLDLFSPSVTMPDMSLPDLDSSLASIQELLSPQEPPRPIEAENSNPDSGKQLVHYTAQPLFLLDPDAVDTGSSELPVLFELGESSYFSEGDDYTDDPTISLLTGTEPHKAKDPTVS

[12] = Luminescence Cell-Based Dose Response HTS to Identify Activators of Luciferase Translation or Activity in H4-C Neuroglioblastoma Cells. [Related pubchem assays: 1829 (Project Summary), 1814 (Primary HTS)]; assay type: functional
[13] = Luminescence Cell-Based Dose Confirmation HTS to Identify Activators of 5'UTR Stem-Loop Driven Alpha-Synuclein mRNA Translation in H4 Neuroglioblastoma Cells. [Related pubchem assays: 1829 (Project Summary), 1814 (Primary HTS)]; assay type: functional
[14] = target: T4, Rac GTPase-activating protein 1 (Homo sapiens, UniProt Q9H0H5); assay: blockers of MgcRacGAP-driven Rac1 GTP hydrolysis – biochemical, ADP Hunter fluorescence, primary and confirmatory, confirmation (AID 624330); assay type: functional
T4 sequence (Q9H0H5 whole entry): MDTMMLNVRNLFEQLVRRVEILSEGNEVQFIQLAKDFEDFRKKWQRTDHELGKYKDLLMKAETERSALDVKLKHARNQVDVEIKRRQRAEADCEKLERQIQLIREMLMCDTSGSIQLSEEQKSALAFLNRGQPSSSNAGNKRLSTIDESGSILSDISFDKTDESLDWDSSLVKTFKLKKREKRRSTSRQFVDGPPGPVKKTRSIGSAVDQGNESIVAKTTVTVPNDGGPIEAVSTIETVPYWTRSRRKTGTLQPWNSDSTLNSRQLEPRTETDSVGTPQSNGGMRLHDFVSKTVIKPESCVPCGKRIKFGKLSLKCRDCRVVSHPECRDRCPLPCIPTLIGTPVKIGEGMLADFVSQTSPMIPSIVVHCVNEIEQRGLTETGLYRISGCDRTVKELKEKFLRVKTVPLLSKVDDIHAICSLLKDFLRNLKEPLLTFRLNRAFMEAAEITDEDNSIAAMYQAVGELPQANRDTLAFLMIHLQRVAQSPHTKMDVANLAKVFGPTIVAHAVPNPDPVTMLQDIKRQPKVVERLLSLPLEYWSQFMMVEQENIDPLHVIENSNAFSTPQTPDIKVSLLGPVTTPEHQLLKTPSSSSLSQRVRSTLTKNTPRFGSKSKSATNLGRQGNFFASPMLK

[15] = target: T5, Kappa-type opioid receptor (Homo sapiens, UniProt P41145); assay type: functional
T5 sequence (P41145 whole entry): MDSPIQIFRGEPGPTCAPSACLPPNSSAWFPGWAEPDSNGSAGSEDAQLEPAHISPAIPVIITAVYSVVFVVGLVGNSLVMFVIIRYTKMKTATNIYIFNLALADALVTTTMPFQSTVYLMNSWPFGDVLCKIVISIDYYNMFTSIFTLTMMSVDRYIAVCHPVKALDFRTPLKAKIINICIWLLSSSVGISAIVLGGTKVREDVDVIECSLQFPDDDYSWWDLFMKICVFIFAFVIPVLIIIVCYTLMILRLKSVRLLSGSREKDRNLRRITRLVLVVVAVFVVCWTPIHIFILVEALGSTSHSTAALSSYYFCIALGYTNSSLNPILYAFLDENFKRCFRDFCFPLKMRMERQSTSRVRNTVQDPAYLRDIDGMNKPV

[16] = target: T5, Kappa-type opioid receptor; assay type: functional; remark: listed apart in the source
Beta-galactosidase = Beta-galactosidase (Escherichia coli, UniProt Q8VNN2); assay type: functional
Chain of Beta-galactosidase (Q8VNN2 whole entry): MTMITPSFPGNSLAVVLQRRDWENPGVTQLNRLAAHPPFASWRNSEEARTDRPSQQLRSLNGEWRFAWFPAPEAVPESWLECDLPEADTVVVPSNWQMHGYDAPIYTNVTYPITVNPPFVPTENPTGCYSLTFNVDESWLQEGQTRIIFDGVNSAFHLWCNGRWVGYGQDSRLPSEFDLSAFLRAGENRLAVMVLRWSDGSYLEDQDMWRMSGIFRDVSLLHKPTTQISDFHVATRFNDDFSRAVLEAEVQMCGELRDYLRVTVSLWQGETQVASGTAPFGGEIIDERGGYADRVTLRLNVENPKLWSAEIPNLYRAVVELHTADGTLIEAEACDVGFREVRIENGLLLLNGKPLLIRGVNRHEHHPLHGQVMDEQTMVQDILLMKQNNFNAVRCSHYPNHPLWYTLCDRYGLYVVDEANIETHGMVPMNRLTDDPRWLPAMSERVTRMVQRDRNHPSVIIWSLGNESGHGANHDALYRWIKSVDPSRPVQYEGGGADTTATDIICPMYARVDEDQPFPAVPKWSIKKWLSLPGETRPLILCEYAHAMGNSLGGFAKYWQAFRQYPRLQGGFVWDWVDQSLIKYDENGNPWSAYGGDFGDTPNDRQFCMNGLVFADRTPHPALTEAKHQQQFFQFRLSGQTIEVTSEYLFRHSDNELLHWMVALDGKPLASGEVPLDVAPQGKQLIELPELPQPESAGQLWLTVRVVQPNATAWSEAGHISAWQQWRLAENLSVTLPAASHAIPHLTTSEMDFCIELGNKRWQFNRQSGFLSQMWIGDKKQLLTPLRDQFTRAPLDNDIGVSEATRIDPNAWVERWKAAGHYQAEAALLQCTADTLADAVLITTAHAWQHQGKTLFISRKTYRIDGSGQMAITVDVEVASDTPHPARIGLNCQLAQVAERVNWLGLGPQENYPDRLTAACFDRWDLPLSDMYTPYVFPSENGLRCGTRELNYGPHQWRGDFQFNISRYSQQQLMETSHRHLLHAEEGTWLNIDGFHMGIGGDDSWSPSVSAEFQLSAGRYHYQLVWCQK

Cytochrome P450 2D6 = Cytochrome P450 2D6 (Homo sapiens, UniProt P10635); assay: qHTS Assay for Inhibitors and Substrates of Cytochrome P450 2D6. [Related pubchem assays: 410 ]; assay type: ADME; conditions: read-out: Potency
[17] = microbe, parasite or virus in culture; assay type: functional; conditions: Mycobacterium tuberculosis
[18] = target: T6, Microphthalmia-associated transcription factor (Homo sapiens, UniProt O75030); assay: reducers of TRPM1 reporter luminescence, concentration series – cell-based, SK-MEL-5, cherry-picked, set 3, MITF inhibitor project, dose response (AID 493073); assay type: functional;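 further: SK-MEL-5 melanoma cells with luciferase driven by the MITF target TRPM1 promoter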
T6 sequence (O75030 whole entry): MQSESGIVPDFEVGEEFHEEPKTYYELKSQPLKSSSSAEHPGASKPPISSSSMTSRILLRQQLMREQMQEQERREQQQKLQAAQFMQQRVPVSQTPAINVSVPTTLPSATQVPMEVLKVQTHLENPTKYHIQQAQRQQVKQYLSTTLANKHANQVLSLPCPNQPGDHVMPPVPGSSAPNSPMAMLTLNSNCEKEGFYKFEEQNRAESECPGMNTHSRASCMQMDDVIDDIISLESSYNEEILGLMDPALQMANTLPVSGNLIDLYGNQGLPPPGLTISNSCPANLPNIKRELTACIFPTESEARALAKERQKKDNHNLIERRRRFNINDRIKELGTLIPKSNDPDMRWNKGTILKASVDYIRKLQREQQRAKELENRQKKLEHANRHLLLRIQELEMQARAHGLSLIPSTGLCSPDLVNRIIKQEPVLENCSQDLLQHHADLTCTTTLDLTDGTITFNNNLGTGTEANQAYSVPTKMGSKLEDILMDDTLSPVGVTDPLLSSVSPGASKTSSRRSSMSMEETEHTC

[19] = HEK-293T cell viability reduction – luminescence, B-cell screen hits, cytotoxicity control for BCR NF-kB inhibitor project, dose response (AID 489021); assay type: functional, cell-based;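 further: HEK-293T cells carrying an NF-kB luciferase reporter; cells exposed to compound for about 14 hours before viability readout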
Procathepsin L = Procathepsin L (Homo sapiens, UniProt P07711)
Chain of Procathepsin L (P07711 whole entry): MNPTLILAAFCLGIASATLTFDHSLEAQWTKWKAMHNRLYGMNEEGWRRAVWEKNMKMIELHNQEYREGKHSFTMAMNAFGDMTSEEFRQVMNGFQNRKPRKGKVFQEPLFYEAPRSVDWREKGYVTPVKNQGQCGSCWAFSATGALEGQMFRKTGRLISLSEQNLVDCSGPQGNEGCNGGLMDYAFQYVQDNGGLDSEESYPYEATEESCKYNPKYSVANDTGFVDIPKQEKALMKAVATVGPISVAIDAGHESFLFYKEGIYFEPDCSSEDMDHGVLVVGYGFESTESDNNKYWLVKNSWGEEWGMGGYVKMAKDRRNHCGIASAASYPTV

Aspartyl aminopeptidase = target: T7, Aspartyl aminopeptidase (Plasmodium falciparum 3D7, UniProt Q8I2J3)
T7 sequence (Q8I2J3 whole entry): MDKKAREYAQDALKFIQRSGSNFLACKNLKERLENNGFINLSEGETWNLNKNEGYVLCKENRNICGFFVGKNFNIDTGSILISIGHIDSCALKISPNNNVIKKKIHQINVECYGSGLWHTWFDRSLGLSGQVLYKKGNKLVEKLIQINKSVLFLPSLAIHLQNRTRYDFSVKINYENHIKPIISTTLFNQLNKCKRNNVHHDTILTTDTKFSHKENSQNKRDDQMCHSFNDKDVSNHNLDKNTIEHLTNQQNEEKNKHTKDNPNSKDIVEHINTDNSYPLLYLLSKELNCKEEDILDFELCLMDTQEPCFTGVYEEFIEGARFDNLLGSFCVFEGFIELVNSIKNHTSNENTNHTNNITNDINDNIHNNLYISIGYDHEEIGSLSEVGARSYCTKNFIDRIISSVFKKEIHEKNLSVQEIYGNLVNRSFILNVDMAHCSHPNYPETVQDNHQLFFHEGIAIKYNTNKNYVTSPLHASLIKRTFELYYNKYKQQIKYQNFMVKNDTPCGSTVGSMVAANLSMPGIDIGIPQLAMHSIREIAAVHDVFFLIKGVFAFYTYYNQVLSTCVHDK

[20] = luciferase reporter signal suppression in cells – H4 neuroglioma cells, luminescence, dose response (AID 1990); assay type: functional, cell-based
[21] = Luminescence Cell-Based Dose Response HTS to Identify Inhibitors of 5'UTR Stem-Loop Driven Prion Protein mRNA Translation in H4 Neuroglioblastoma Cells. [Related pubchem assays: 1827 (Project Summary), 1813 (Primary HTS)]; assay type: functional
[22] = target: Eukaryotic translation initiation factor 4H (Homo sapiens, UniProt Q15056); assay: inhibitors of translation initiation factor eIF4H – SAR follow-up (AID 435011); assay type: functional
[23] = target: T1, Polyadenylate-binding protein 1; assay: PABP inhibition in translation initiation, SAR follow-up (AID 435018); assay type: functional

With `Cc1ccc(O)c(C(=O)c2cc(C#N)c(=O)n(-c3nccs3)c2)c1` the CC50 [1] was 29.6 µM (active).
With `CCOCC(=O)Nc1nc2ccc(C)cc2s1` the IC50 [2] was > 66 µM (inactive), the IC50 (cells) was 34.5 µM (active) and the IC50 [3] was > 66 µM (inactive). The AC50 [4] was 24 µM (active).
With `CO/N=C/c1cn(-c2ccc(Cl)cc2)nn1` the AC50 [4] was 5.97 µM (active).
In the case of `O=C(COC(=O)c1ccc([N+](=O)[O-])o1)NCCCc1ccccc1`, the AC50 (Caspase-6) is reported as 35.2 µM (active) and the AC50 (HeLa) is reported as > 350 µM (inactive).
For `O=C(Oc1ccc(Br)cc1C(=O)/C=C/c1ccccc1F)c1ccco1`, the AC50 [5] was 5.03 µM (active) and the EC50 [6] was 15.9 µM (active).
With `CCOC(=O)OCC1OC(C#Cc2ccc(C(C)(C)C)cc2)C=CC1OC(=O)OCC` (stereo not drawn) the AC50 (Cytochrome P450 2C9) was 0.0025 µM (inconclusive).
In the case of `COc1cc2ccccc2ccc1=NO`, the AC50 [7] is reported as 34.7 µM (active).
For `Cc1csc2nc(CCNS(=O)(=O)c3cccs3)cn12`, the EC50 [8] was 45.9 µM (active), the EC50 [9] was 1.85 µM (active) and the EC50 (H4) was 96.8 µM (active). For the same compound, the EC50 [10] was 13.1 µM (active), the EC50 [11] was 254 µM (active) and the EC50 [12] was 3.07 µM (active). The EC50 [13] was 2.18 µM (active).
For `O=C(COc1ccccc1)NCC(=O)N/N=C/c1ccc(O)cc1O`, the IC50 [14] was 69.4 µM (active) and the EC50 [6] was > 40 µM (inactive).
For `COc1ccc(C)c(-n2c(=O)n(Cc3ccccc3)c(=O)c3[nH]cnc32)c1`, the IC50 [15] was 6.84 µM (active), the IC50 [16] was greater than 32 µM and the EC50 (Beta-galactosidase) was 9.23 µM (active).
In the case of `Nc1nc(Nc2ccccc2)nc(NCCO)c1[N+](=O)[O-]`, the AC50 [7] is reported as 17.5 µM (active).
In the case of `CC(C)C[C@@H](CC(=O)N[C@H](CC(=O)N[C@@H]1CCNC[C@H]1C(=O)N[C@H](CC(=O)N[C@@H](CCC(=O)O)CC(=O)O)CC(C)C)C(C)C)NC(=O)[C@@H]1CCCC[C@H]1N`, the AC50 (Cytochrome P450 2C9) is reported as 39.8 µM (inconclusive) and the AC50 (Cytochrome P450 2D6) is reported as 39.8 µM (inconclusive).
For `O=[N+]([O-])c1ccc(Sc2cc[n+]([O-])c3ccccc23)c([N+](=O)[O-])c1`, the CC50 [17] was 12.1 µM (active), the AC50 [18] was 5.92 µM (active) and the IC50 [19] was > 80 µM (inactive).
With `O=C(NCCc1ccc(O)c(O)c1)C1COc2ccccc2O1` (stereo not drawn) the EC50 [11] was 28.5 µM (active), the IC50 (Procathepsin L) was > 59.6 µM (not active) and the IC50 (Aspartyl aminopeptidase) was 2.11 µM (active).
In the case of `Cc1nc2cc(-c3ccccc3)nn2c(C)c1CCC(=O)NCc1ccco1`, the EC50 [20] is reported as 17.6 µM (active), the EC50 [21] is reported as 9.65 µM (active) and the IC50 [19] is reported as > 80 µM (inactive).
With `COC(=O)c1[nH]c2ccccc2c1Sc1ccccc1` the IC50 [22] was > 100 µM (inactive) and the IC50 [23] was > 100 µM (inactive).
